From patent publication US20130017265A1, “PARTICLES FOR MULTIPLE AGENT DELIVERY” (MASSACHUSETTS INSTITUTE OF TECHNOLOGY, priority 2009, published 2013)

What was measured:
LNCaP cells = test: MTT cytotoxicity assay, LNCaP cells; assay type: cell-based, human; settings: for IC50: MTT, 12 hours treatment, further 48 hours, [Pt] = 25 * [Doce]
Protocol: (§1) The ability of the targeted drug releasing construct nanoparticles to promote cell death was determined using the MTT assay using human prostate cancer LNCaP and PC3 cells and compared against the standard compounds cisplatin and the Pt(IV)-monosuccinate prodrug. Human prostate cancer LNCaP and PC3 cells were obtained from the ATCC. […] The cells were incubated at 37° C. in 5% CO2 in RPMI growth medium supplemented with 10% fetal bovine serum and 1% penicillin/streptomycin. The cells were passaged every 3 to 4 days and restarted from the frozen stock upon reaching passage number 20. Cytotoxic activity of the constructs was evaluated using the MTT assay. Solutions of the different constructs were freshly prepared in sterile PBS before use. All platinum constructs were quantified by atomic absorption spectroscopy. LNCaP and PC3 cells were seeded on a 96-well plate in 100 μL RPMI media and incubated for 24 hours.
(§2) The cells were then treated with different constructs at varying concentrations and incubated for 12 hours at 37° C. Fresh medium was replaced after 12 hours incubation with nanoparticles, and the cells were incubated for a further 48 hours. The cells were then treated with 20 μL of 3-(4,5-dimethylthiazol-2-yl)-2,5-diphenyltetrazolium bromide (MTT) (5 mg/mL in PBS) and incubated for 5 hours. The medium was removed, the cells were lysed by adding 100 μL of DMSO, and the absorbance of the purple formazan was recorded at 550 nm using a microplate spectrophotometer. Each sample was assayed in triplicate in three independent experiments for each cell line.

PC3 cells = test: MTT cytotoxicity assay, PC3 cells; assay type: cell-based, human; settings: for IC50: MTT, 12 hours treatment, further 48 hours, [Pt] = 25 * [Doce]
Protocol: as §1, §2

Molecule `N.N.[Cl][Pt][Cl]` [Cisplatin] has an IC50 (LNCaP cells) of over 5 µM and an IC50 (PC3 cells) of 9.9 µM.

With “c,c,t[Pt(NH3)Cl2(OH)(succinate)] [Pt-Monosuccinate]” the effect on viability (LNCaP cells; LNCaP cells, compared with cisplatin, PolyPt-NP, PolyPt-NP-Apt) was “least effect on viability”, the IC50 (LNCaP cells) was 106 µM and the IC50 (PC3 cells) was 36 µM. For the same molecule, the effect on viability (PC3 cells; PC3 cells, compared with cisplatin, PolyPt-NP, PolyPt-NP-Apt) was “least effect on viability”.
